Experimental data as given in patent US11464780B2, “Pyrazolopyrimidine derivative and use thereof” (Simcere Pharmaceutical Co. Ltd., priority 2018, dated 2022).
Where a name gives a salt, the structure may show the parent alone.

Tests used:
[1] = biological target: T1, TrkA (Homo sapiens, UniProt P04629); assay: Kinase inhibitory activity (33P-ATP filter binding, Reaction Biology Corp.); format: biochemical; conditions: read-out: The half maximal inhibitory concentration IC50 on the kinases, TrkA
T1 construct: purchased Reaction Biology Corp. (contract assay)
Procedure: (§1) The mixture was incubated at room temperature for 20 minutes. To the reaction mixture was added a certain concentration of ^33P-ATP to initiate the reaction, and then the mixture was incubated at room temperature for 120 minutes. The radioactivities of the reactants were determined by the method of filter binding. The final kinase activity was expressed as the ratio of the remaining kinase activity in the test sample to the kinase activity in the DMSO control group. The dose-effect curve was fitted by GraphPad software and the IC50 was calculated.

[2] = biological target: T2, Ros1 (Homo sapiens, UniProt P08922); assay: as above; format: biochemical; conditions: read-out: The half maximal inhibitory concentration IC50 on the kinases, Ros1
T2 construct: purchased Reaction Biology Corp. (contract assay)
Procedure: as §1

[3] = biological target: T3, TrkC (Homo sapiens, UniProt Q16288); assay: as above; format: biochemical; conditions: read-out: The half maximal inhibitory concentration IC50 on the kinases, TrkC
T3 construct: purchased Reaction Biology Corp. (contract assay)
Procedure: as §1

[4] = biological target: T4, ALK (Homo sapiens, UniProt Q9UM73); assay: as above; format: biochemical; conditions: read-out: The half maximal inhibitory concentration IC50 on the kinases, ALK
T4 construct: purchased Reaction Biology Corp. (contract assay)
Procedure: The inhibitory activities of the compounds on TrkA, TrkC, ALK, Ros1 and other kinases were determined by Reaction Biology Corp. To reaction buffer (20 mM Hepes (pH 7.5), 10 mM MgCl2, 1 mM EGTA, 0.02% Brij35, 0.02 mg/mL BSA, 0.1 mM Na3VO4, 2 mM DTT, 1% DMSO) were sequentially added a certain concentration of substrate, coenzyme factor, kinase and test compound (10 concentrations, 3-fold serial dilutions, DMSO at a final concentration of […]), and the mixture was mixed evenly. The mixture was incubated at room temperature for 20 minutes. To the reaction mixture was added a certain concentration of ^33P-ATP to initiate the reaction, and then the mixture was incubated at room temperature for 120 minutes. The radioactivities of the reactants were determined by the method of filter binding. The final kinase activity was expressed as the ratio of the remaining kinase activity in the test sample to the kinase activity in the DMSO control group. The dose-effect curve was fitted by GraphPad software and the IC50 was calculated.

[5] = test system: human lung cancer LU-01-0414 subcutaneous xenograft tumor; assay: In vivo efficacy, subcutaneous xenograft tumor of human lung cancer LU-01-0414; design: species or system BALB/c mouse; conditions: LU-01-0414 xenograft, 14th day, PO
Procedure: Experimental object: evaluation of the in vivo efficacy of test drugs such as WX002A on subcutaneous xenograft tumor of human lung cancer LU-01-0414 in BALB/c mouse model.
Drug preparation: The compounds were all prepared into clear solutions with 5% DMSO+10% solutol+85% water as solvent for administration in the PO (intragastric) group.
Tumor measurement: the tumor diameters were measured with a vernier caliper twice a week. The calculation formula of tumor volume is: V=0.5×a×b^2, wherein a and b represent the long diameter and short diameter of the tumor, respectively. The anti-tumor efficacy of the compounds was evaluated by TGI (%). TGI (%) reflects tumor growth inhibition rate.
Statistical analysis: the statistical analysis was based on the relative tumor volume and tumor weight at the end of the experiment using SPSS software. One-way ANOVA was used to analyze the comparison between multiple groups. […] P<0.05 was considered to indicate significant difference.

[6] = biological target: T5, TrkA-G595R (Homo sapiens, UniProt P04629, G595R); assay: Kinase inhibitory activity (33P-ATP filter binding, Reaction Biology Corp.); format: biochemical; conditions: read-out: The half maximal inhibitory concentration IC50 on the kinases, TrkA-G595R
T5 construct: purchased Reaction Biology Corp. (contract assay)
Procedure: as §1

[7] = In vivo pharmacokinetic test in mice; design: species or system male CD-1 mice; conditions: PO dose of 10 mL/kg
Procedure: Experimental object: male CD-1 mice aged 7-9 weeks were used as the experimental animals, the LC/MS/MS method was used to determine the drug concentrations in plasma at different time points after single intravenous (IV) and intragastric (PO) administration of the compounds, in vivo pharmacokinetic behaviors of the compounds of the present disclosure in mice were studied, and pharmacokinetic characteristics thereof were evaluated. Drug preparation: The compounds were prepared into clear solutions with 5% DMSO+10% solutol+85% water as solvent for administration in IV (intravenous) group and PO (intragastric). The dose of the compounds: IV dose of 3 mg/kg, and PO dose of […].

[8] = biological target: T6, Ba/F3 LMNA-NTRK1-WT stably transfected cell line (Homo sapiens, UniProt P04629); assay: Cell proliferation inhibition (CellTiter-Glo); format: cell-based; conditions: 72 hours, read-out: The half maximal inhibitory concentration IC50 against cells, Ba/F3 LMNA-NTRK1-WT
T6 construct: fused on or other part: P02545 (Prelamin-A/C)
Procedure: Adenosine Tri-Phosphate (ATP) is an energy carrier shared by various life activities in nature, and is the smallest unit of energy storage and transfer. The CellTiter-Glo™ cell viability detection kit uses luciferase as the detection substance, and luciferase requires the participation of ATP during the process of luminescence. CellTiter-Glo™ reagent is added to cell culture medium, and the luminescent intensity is measured. The luminescent signal is directly proportional to the amount of ATP in the system, and ATP is positively related to the number of living cells. Therefore, by using the CellTiter-Glo kit to detect ATP content, cell proliferation can be detected. In this assay, the cell line is Ba/F3 LMNA-NTRK1-WT stably transfected cell line, with 5000 cells/well.
IC50 Determination Process:
1. Cell Culture and Inoculation
a) the cells in the logarithmic growth phase were harvested, and counted with a platelet counter. Trypan blue exclusion method was used to detect cell viability to ensure the cell viability was no less than 90%.
b) the cell concentration was adjusted; 90 μL of cell suspension was added respectively into a 96-well plate.
c) the cells in the 96-well plates was cultured under conditions of 37° C., 5% CO2 and 95% humidity overnight.
2. Drug Dilution and Administration
a) 10-fold drug solutions were prepared, the highest concentration was 10 μM, 9 concentrations, 3-fold diluted (refer to Appendix I). 10 μL of each drug solution was added to each well of the 96-well plate seeded with the cells in triplicate.
b) the cells in the 96-well plate added with the drug were cultured under conditions of 37° C., 5% CO2 and 95% humidity for 72 hours, and then CTG (cell proliferation) was performed.
a) CellTiter-Glo™ reagent was thawed, and the cell plate was equilibrated at room temperature for 30 minutes.
b) CellTiter-Glo™ reagent of a same volume was added to each well;
c) the cell plate was shaken on an orbital shaker for 5 minutes to lyse the cells.
d) the cell plate was placed at room temperature for 20 minutes to stabilize the luminescent signal.
e) the luminescent intensity was read.
GraphPad Prism 5.0 software was used to analyze the data, nonlinear S-curve regression was used to fit the data to obtain dose-effect curve, and IC50 value was calculated therefrom.

[9] = In vivo cassette pharmacokinetic test in mice; design: species or system male CD-1 mice; conditions: male, CD-1, mouse, in vivo, po, 3 mg/kg, 2 h
Procedure: The dose of the compounds: […] PO dose of 3 mg/kg, and administration volume of 3 mL/kg.

T5 sequence (P04629 33-796 G595R): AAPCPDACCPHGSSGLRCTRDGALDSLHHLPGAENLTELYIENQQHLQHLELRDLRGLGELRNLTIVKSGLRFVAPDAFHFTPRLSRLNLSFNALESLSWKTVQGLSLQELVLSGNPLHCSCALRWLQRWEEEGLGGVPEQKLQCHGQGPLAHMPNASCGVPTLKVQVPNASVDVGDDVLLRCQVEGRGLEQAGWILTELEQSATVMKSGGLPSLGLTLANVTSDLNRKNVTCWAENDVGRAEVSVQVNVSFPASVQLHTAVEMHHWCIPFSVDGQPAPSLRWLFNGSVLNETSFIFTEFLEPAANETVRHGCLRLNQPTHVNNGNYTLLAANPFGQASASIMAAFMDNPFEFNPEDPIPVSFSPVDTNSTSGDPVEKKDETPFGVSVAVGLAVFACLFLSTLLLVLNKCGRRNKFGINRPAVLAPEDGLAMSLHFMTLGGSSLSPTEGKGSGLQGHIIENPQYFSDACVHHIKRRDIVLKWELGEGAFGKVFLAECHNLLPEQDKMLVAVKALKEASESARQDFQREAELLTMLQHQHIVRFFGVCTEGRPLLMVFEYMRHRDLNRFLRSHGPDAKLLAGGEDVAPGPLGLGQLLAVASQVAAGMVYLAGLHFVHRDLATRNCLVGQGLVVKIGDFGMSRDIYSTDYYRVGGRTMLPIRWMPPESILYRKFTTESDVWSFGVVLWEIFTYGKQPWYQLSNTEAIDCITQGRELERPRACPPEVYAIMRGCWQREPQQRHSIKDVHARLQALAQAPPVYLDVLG
T6 sequence (P04629 whole entry, stated change not applied, the tested form may be a part): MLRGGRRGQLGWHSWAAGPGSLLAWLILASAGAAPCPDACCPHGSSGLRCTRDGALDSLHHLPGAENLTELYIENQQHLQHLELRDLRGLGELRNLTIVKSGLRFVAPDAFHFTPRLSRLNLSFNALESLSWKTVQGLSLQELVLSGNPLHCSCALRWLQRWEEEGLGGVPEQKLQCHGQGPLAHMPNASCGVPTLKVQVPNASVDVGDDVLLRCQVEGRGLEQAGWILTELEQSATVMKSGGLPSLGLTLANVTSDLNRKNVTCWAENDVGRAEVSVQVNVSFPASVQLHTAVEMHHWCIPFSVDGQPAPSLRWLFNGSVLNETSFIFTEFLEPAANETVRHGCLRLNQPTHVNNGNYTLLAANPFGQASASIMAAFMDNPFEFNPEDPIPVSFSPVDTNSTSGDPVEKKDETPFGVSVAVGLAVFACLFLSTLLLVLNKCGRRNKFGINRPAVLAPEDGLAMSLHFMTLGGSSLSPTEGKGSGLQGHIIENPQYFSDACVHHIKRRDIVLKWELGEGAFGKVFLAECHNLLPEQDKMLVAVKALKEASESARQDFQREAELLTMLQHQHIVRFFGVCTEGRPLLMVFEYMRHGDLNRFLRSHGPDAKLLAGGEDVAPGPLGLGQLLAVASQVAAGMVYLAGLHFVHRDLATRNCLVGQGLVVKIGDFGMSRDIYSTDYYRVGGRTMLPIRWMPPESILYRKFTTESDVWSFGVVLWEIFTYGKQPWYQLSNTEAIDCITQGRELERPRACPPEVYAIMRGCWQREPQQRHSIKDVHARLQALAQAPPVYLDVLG
T1 sequence (P04629 33-796): as the sequence (P04629 33-796 G595R) above, with R563G counted along it
T3 sequence (Q16288 32-839): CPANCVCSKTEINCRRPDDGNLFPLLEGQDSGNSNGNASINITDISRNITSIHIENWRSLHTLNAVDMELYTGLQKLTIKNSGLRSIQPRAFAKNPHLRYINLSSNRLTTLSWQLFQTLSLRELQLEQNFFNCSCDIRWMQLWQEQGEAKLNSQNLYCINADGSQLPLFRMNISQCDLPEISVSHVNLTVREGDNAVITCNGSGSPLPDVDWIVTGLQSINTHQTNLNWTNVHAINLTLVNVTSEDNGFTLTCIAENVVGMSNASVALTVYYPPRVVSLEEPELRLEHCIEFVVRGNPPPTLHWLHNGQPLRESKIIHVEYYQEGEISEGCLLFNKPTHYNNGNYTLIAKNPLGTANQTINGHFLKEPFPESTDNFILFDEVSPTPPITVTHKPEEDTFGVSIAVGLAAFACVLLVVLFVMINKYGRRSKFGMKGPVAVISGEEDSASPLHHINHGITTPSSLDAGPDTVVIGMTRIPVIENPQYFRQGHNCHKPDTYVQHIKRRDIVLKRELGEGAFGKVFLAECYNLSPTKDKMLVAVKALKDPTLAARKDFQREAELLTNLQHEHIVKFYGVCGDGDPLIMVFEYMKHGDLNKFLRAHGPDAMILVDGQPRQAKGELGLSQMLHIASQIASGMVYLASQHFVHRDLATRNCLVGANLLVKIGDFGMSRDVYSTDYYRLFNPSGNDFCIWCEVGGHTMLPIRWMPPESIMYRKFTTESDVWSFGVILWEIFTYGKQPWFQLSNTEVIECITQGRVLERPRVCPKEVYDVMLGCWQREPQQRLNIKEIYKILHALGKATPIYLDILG
T2 sequence (P08922 28-2347): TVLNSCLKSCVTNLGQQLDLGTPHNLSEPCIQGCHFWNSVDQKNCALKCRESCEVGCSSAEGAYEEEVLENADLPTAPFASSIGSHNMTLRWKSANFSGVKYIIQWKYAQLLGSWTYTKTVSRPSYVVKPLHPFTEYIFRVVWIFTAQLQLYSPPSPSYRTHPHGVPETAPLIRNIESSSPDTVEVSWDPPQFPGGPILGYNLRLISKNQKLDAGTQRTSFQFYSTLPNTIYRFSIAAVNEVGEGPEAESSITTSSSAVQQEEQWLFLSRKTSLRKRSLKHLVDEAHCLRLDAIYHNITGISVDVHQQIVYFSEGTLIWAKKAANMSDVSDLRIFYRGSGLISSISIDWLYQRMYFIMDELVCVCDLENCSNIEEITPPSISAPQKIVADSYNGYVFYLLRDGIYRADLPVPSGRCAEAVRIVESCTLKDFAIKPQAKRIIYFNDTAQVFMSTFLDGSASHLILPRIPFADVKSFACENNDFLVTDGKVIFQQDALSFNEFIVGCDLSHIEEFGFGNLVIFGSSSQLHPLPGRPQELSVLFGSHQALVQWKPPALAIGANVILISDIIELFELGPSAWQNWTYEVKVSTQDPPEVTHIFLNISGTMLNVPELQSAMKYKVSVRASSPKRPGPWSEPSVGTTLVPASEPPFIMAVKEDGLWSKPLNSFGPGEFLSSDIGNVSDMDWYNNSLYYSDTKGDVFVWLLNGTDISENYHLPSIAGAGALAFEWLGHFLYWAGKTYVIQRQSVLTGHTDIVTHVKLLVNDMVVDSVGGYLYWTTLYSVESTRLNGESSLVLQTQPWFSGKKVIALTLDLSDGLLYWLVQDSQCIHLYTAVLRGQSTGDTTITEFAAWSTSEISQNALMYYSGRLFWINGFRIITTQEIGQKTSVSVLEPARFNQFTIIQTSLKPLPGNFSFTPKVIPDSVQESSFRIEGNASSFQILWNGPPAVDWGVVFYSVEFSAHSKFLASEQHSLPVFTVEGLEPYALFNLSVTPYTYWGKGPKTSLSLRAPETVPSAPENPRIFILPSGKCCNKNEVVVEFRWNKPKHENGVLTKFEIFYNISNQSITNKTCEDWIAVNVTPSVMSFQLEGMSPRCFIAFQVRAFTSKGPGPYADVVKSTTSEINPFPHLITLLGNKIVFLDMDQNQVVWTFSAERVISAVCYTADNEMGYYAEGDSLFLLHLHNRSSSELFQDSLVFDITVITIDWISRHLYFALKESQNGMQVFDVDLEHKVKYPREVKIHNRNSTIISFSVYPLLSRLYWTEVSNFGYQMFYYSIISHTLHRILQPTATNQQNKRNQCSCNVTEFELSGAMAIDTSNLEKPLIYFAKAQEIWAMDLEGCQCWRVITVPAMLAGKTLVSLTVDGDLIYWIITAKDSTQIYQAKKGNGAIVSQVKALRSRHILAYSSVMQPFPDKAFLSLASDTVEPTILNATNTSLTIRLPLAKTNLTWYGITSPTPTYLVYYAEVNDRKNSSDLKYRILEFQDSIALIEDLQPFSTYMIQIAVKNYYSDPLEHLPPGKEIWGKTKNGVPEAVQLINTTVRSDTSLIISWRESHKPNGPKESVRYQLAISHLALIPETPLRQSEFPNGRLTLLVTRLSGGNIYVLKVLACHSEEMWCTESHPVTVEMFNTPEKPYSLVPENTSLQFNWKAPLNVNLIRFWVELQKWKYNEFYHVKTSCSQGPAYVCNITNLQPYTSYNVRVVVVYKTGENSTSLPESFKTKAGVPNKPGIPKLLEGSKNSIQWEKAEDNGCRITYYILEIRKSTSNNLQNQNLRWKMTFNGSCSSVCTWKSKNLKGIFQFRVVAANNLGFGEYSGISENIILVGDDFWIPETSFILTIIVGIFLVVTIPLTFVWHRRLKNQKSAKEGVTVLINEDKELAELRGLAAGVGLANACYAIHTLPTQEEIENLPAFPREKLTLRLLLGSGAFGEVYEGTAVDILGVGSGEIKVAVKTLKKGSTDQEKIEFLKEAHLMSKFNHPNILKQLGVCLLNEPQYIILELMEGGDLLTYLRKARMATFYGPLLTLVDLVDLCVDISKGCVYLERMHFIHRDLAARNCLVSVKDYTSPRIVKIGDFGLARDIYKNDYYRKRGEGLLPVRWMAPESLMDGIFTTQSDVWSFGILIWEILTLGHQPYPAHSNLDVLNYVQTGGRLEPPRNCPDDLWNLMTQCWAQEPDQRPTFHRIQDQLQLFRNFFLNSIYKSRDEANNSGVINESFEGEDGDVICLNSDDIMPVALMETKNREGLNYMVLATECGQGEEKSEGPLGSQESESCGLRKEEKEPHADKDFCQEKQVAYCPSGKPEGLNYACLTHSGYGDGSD

For `O=C1NC2(CC2)COc2ccc(F)cc2[C@@H]2CCON2c2ccn3ncc1c3n2` [WX003B], the IC50 [1] was > 1000 nM.

With `C[C@H]1CNC(=O)c2cnn3ccc(nc23)N2OCC[C@H]2c2cc(F)cnc2O1` [WX005A] the IC50 [2] was 531 nM, the IC50 [1] was > 1000 nM and the IC50 [3] was 189 nM. For the same molecule, the IC50 [4] was > 1000 nM.

With `O=C1NC2(CC2)COc2ncc(F)cc2[C@@H]2CCON2c2ccn3ncc1c3n2` [WX002B] the IC50 [1] was > 1000 nM.

With `O=C1N[C@@H]2CNC[C@@H]2Oc2ncc(F)cc2[C@@H]2CCON2c2ccn3ncc1c3n2` [WX012A] the IC50 [1] was > 1000 nM.

`C[C@@H](Oc1cc(-c2cnn(C3CCNCC3)c2)cnc1N)c1c(Cl)ccc(F)c1Cl` [Crizotinib, crizotinib, reference compound] gave a T/C ([5]; 30 mg/kg QD) of 10.32%, a TGI ([5]; 30 mg/kg QD) of 117.67% and a T/C ([5]; 50 mg/kg QD) of 4.89%. The TGI ([5]; 50 mg/kg QD) was 124.09%.

In the case of `O=C1N[C@@H]2COCC[C@@H]2Oc2ncc(F)cc2[C@@H]2CCON2c2ccn3ncc1c3n2` [WX010A], the IC50 [1] is reported as > 1000 nM.

In the case of `O=C1NC2(COC2)COc2ncc(F)cc2[C@@H]2CCON2c2ccn3ncc1c3n2` [WX006B], the IC50 [1] is reported as > 1000 nM and the IC50 [6] is reported as > 1000 nM.

With `C[C@@H]1CCc2ncc(F)cc2[C@H]2CCCN2c2ccn3ncc(c3n2)C(=O)N1` [LOXO-195, reference compound] the “Area under the curve AUC0-last” value [7] was 27.344 µM·h, the “Time of peak concentration Tmax” value [7] was 22.8 min and the Cmax ([7]; read-out: Peak concentration Cmax) was 12.7 µM.

For `CCN1C[C@@H]2Oc3ncc(F)cc3[C@@H]3CCON3c3ccn4ncc(c4n3)C(=O)N[C@@H]2C1` [WX015B], the IC50 [1] was > 1000 nM.

With `CN1C[C@@H]2Oc3ncc(F)cc3[C@@H]3CCON3c3ccn4ncc(c4n3)C(=O)N[C@@H]2C1` [WX009B] the IC50 [1] was > 1000 nM.

In the case of `C[C@@H]1COc2ccc(F)cc2[C@@H]2CCON2c2ccn3ncc(c3n2)C(=O)N1` [WX017B], the IC50 [1] is reported as > 1000 nM.

Work on `CN1CC[C@H]2NC(=O)c3cnn4ccc(nc34)N3OCC[C@@H]3c3cc(F)cnc3O[C@H]2C1` [WX011A] yielded an IC50 [1] of 33.6 nM and a GI50 [8] of 39.7 nM.

`O=C1N[C@@H]2CCNC[C@@H]2Oc2ncc(F)cc2[C@H]2CCON2c2ccn3ncc1c3n2` [WX013B] showed an IC50 [1] of 57.2 nM and a GI50 [8] of 216 nM.

For `CC1CCc2ncc(F)cc2C2CCON2c2ccn3ncc(c3n2)C(=O)N1` (stereo not drawn) [WX001 hydrochloride], the IC50 [1] was 177 nM.

For `CC1(C)COc2ncc(F)cc2[C@H]2CCON2c2ccn3ncc(c3n2)C(=O)N1` [WX018], the IC50 [1] was > 1000 nM.

With `O=C1N[C@@H]2COC[C@@H]2Oc2ncc(F)cc2[C@@H]2CCON2c2ccn3ncc1c3n2` [WX008B] the IC50 [1] was > 1000 nM and the IC50 [6] was > 1000 nM.

`CCN1CC[C@H]2NC(=O)c3cnn4ccc(nc34)N3OCC[C@@H]3c3cc(F)cnc3O[C@H]2C1` [WX016A] gave an IC50 [1] of 33 nM and a GI50 [8] of 65.8 nM.

In the case of `CN1CC[C@H]2NC(=O)c3cnn4ccc(nc34)N3OCC[C@H]3c3cc(F)cnc3O[C@H]2C1` [WX011B], the IC50 [1] is reported as 270 nM.

For `CN1C[C@@H]2Oc3ncc(F)cc3[C@H]3CCON3c3ccn4ncc(c4n3)C(=O)N[C@@H]2C1` [WX009A], the IC50 [1] was 85.1 nM and the GI50 [8] was 76.8 nM.

`CCN1CC[C@H]2NC(=O)c3cnn4ccc(nc34)N3OCC[C@H]3c3cc(F)cnc3O[C@H]2C1` [WX016B] gave an IC50 [1] of 220 nM.

In the case of `CN1CCN(c2ccc(C(=O)Nc3n[nH]c4ccc(Cc5cc(F)cc(F)c5)cc34)c(NC3CCOCC3)c2)CC1` [RXDX-101, Entrectinib, reference compound], the “drug concentration in brain at 2 h Brain@2 h” value [9] is reported as 30 nmol/kg.

With `CC(=O)N1CC[C@H]2NC(=O)c3cnn4ccc(nc34)N3OCC[C@@H]3c3cc(F)cnc3O[C@H]2C1` [WX014B] the IC50 [1] was 12.8 nM and the GI50 [8] was 80.4 nM.

Molecule `O=C1N[C@@H]2CNC[C@@H]2Oc2ncc(F)cc2[C@H]2CCON2c2ccn3ncc1c3n2` [WX012B] has an IC50 [1] of 143 nM and a GI50 [8] of 259 nM.

In the case of `O=C1N[C@@H]2CCC[C@@H]2Oc2ncc(F)cc2[C@@H]2CCON2c2ccn3ncc1c3n2` [WX007B], the IC50 [1] is reported as 585 nM and the IC50 [6] is reported as > 1000 nM.

Molecule `CCN1C[C@@H]2Oc3ncc(F)cc3[C@H]3CCON3c3ccn4ncc(c4n3)C(=O)N[C@@H]2C1` [WX015A] has an IC50 [1] of 182 nM and a GI50 [8] of 65.1 nM.

For `O=C1N[C@@H]2CCNC[C@@H]2Oc2ncc(F)cc2[C@@H]2CCON2c2ccn3ncc1c3n2` [WX013A], the IC50 [1] was > 1000 nM.

For `C[C@@H]1COc2ncc(F)cc2[C@@H]2CCON2c2ccn3ncc(c3n2)C(=O)N1` [WX004B], the IC50 [1] was > 1000 nM and the IC50 [3] was 105 nM.

Molecule `CC(=O)N1CC[C@H]2NC(=O)c3cnn4ccc(nc34)N3OCC[C@H]3c3cc(F)cnc3O[C@H]2C1` [WX014A] has an IC50 [1] of 1230 nM.

Molecule `O=C1NC2(CC2)COc2ncc(F)cc2C2CCON2c2ccn3ncc1c3n2` (stereo not drawn) [WX002] has an IC50 [1] of 4.37 nM.
